We go through three molecules from patent US20240262844A1, “PYRIDINIUM SALTS AND METHODS OF USE” (UNIVERSITY OF WYOMING, priority 2023, published 2024).

Each structure is given as a SMILES string. “And” between values parts separate entries of the source, which are not always exact repeats. Equal entries are not always repeated. Structures can show the parent of a compound that is named as a salt.

Series [1] can be described thus: Fluorescence lifetime and emission measurements. It is filed as physicochemical. On the procedure: The emission spectra were generated by excitation of a 10 μM solution of either pyridinium salt 2a or pyridinium salt 2b in H2O. Analyses were performed at 375 nm excitation with an emission slit width of 5 nm and an excitation slit width of 5 nm. The emission wavelength was gathered from 400 nm to 600 nm.
FIGS. 9A-9D show fluorescence decay spectra of pyridinium salts 2a and 2b in selected solvents according to at least one embodiment of the present disclosure. Specifically, FIG. 9A is a fluorescence decay spectrum of pyridinium salt 2a in 1,2-dichloroethane, FIG. 9B is a fluorescence decay spectrum of pyridinium salt 2a in CH3CN, FIG. 9C is a fluorescence decay spectrum of pyridinium salt 2a in H2O, and FIG. 9D is a fluorescence decay spectrum of pyridinium salt 2b in H2O. The fluorescent decay spectra were generated with a 1-10 μM solution of pyridinium salt (10 μM for H2O and 1 μM for other solvents) using a GG420 long pass filter and a 375 nm excitation wavelength. The instrument response factor was measured using a highly diluted solution of LUDOX AS-30 colloidal silica in water and a ND1.0 filter. The concentration of LUDOX and the emission slit width were adjusted until the intensity of the instrument response function (IRF) was similar to the fluorescent decay intensity. The procedure given in the EasyLife X User's Manual was followed.

A further series deals with T1, lysozyme (14.3 kDa) (Gallus gallus, UniProt P00698).
T1 construct: Lysozyme (from chicken egg white, >40,000 units/mg of protein); purchased Sigma Aldrich; host or cells: chicken egg white
T1 sequence (P00698 19-147): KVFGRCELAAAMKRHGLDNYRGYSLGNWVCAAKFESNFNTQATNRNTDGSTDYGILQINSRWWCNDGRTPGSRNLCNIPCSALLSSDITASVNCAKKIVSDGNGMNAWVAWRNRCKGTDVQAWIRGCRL
In words: Photochemical labeling of lysozyme (LC/MS). The class given is biochemical, chicken. To be noted: for irradiation time to complete reactivity: lysozyme labeling. The protocol: General Procedure B: Photochemical Irradiation of Peptides and Proteins: To a 2 mL Pyrex LC/MS vial (Thermo model #03-391-39) were sequentially added solutions containing the desired biomolecule, glutathione (GSH), pyridinium salt, and ammonium acetate (NH4OAc). The resulting solution was diluted to a final volume of 500 μL and then sparged using nitrogen for a minimum of 30 minutes prior to irradiation. The actively sparging solution was then placed in an EvoluChem™ PhotoRedOx Box photoreactor that was equipped with a Kessil, PR160 427 nm LED Lamp and was then irradiated (100% lamp intensity) for the designated time at room temperature while maintaining active sparging. The resultant reaction mixture was then analyzed directly by LC/MS. Analysis of labeling outcomes using LC/MS was performed either by extracted ion chromatogram intensities (method A) or by integrating the area under the peaks associated with peptide content (method B). These values were totaled, and estimated percentages were assigned according to relative intensities of peaks or ion counts.
Labeling of Lysozyme with Pyridinium Salt 2a (Lysozyme-2a Conjugate). Labeling of lysozyme (14.3 kDa) with the pyridinium salt 2a was performed by following general procedure B using the following solutions: lysozyme (27 μL, 182 μM, 10 μM final concentration), pyridinium salt 2a (200 μL, 500 μM, 200 μM final concentration), NH4+OAc (100 μL, 100 mM, pH=6.9, 20 mM final concentration), glutathione (15 μL, 10 mM, 300 μM final concentration), and water (158 μL) with a 100% intensity irradiation time of 60 minutes. The reaction mixture was analyzed directly by LC/MS using method A and was estimated to have proceeded in >95% conversion and a 10.9:1 mono:di labeled ratio and 10% glutathionylation of all unlabeled and labeled protein content was observed.
Labeling of Lysozyme with Pyridinium Salt 2b (Lysozyme-2b Conjugate). Labeling of lysozyme (14.3 kDa) with the pyridinium salt 2b was performed by following general procedure B using the following solutions: lysozyme (19 μL, 262 μM, 10 μM final concentration), 2b (181 μL, 554 μM, 200 μM final concentration), NH4OAc (50 μL, 200 mM, pH=6.9, 20 mM final concentration), glutathione (50 μL, 3 mM, 300 μM final concentration), and water (200 μL) with a 100% intensity irradiation time of 10 minutes. The reaction mixture was analyzed directly by LC/MS using method A and was estimated to have proceeded with 83% conversion. Partial oxidation at biotin obfuscated estimation of both oxidation and glutathionylation. Lysozyme-2b conjugate (retention time (Tr)=2.80-5.17 min).
Labeling of Lysozyme with Pyridinium Salt 2c (Lysozyme-2c Conjugate). Labeling of lysozyme (14.3 kDa) with the pyridinium salt 2c was performed by following general procedure B using the following solutions: lysozyme (19 μL, 262 μM, 10 μM final concentration), pyridinium salt 2c(367 μL, 680 μM, 500 μM final concentration), NH4OAc (50 μL, 200 mM, pH=6.9, 20 mM final concentration), glutathione (50 μL, 3 mM, 300 μM final concentration), and water (14 μL) with a 100% intensity irradiation time of 10 minutes. The reaction mixture was analyzed directly by LC/MS using method A and was estimated to have proceeded with 85% conversion and a 3.7:1 mono:di labeled ratio and 10% glutathionylation of all protein content was observed. Lysozyme-2c conjugate (retention time (Tr)=3.11-5.07 min).
Labeling of Lysozyme with Pyridinium Salt 2d (Lysozyme-2d Conjugate). Labeling of lysozyme (14.3 kDa) with the pyridinium salt 2d was performed by following general procedure B using the following solutions: Lysozyme (16.8 μL, 0.297 mM solution in H2O, final concentration […]), pyridinium salt 2d (91.8 μL, 1.09 mM solution in CH3CN/H2O (2:3), final concentration 200 μM), NH4OAc (50 μL, 200 mM in H2O, final concentration 20 mM, pH 6.9), glutathione (15 μL, 10 mMsolution in H2O, final concentration 300 μM), and water (326.4 μL) with a 100% intensity irradiation time of 20 minutes. […]

Turning to `COc1ccc2cc(-c3cc(C)[n+](N(C)C(=O)OCCCCC[C@H]4SC[C@H]5NC(=O)N[C@H]54)c(C)c3)ccc2c1` (stereo in doubt) [Pyridinium salt 2b, 4-(6-methoxynaphthalen-2-yl)-2,6-dimethyl-1-(methyl(((5-((3aR,4R,6aS)-2-oxohexahydro-1H-thieno[3,4-d]imidazol-4-yl)pentyl)oxy)carbonyl)amino)pyridin-1-ium tetrafluoroborate], in series [1] (10 μM in H2O, 375 nm excitation), the “relative fluorescence quantum yield (ΦF1) pyridinium salt 2b: pyridinium salt 2a” value is recorded as 3.3. Moreover, in series [1] (water, 375 nm excitation), the “fluorescence lifetime τ1” value was 0.5 ns and the “fluorescence lifetime τ2” value amounted to 2.8 ns. The “irradiation time to complete reactivity” value at lysozyme (14.3 kDa) is “less than 10 min”.
With `COC(=O)N(C)[n+]1c(C)cc(-c2ccc3cc(OC)ccc3c2)cc1C` [Pyridinium salt 2a, 1-((methoxycarbonyl)(methyl)amino)-4-(6-methoxynapthalen-2-yl)-2,6-dimethylpyridin-1-ium tetrafluoroborate], the “fluorescence lifetime τ1” value was 4.1 ns in series [1] (1,2-dichloroethane, 375 nm excitation); 3.3 ns in series [1] (acetonitrile, 375 nm excitation); 0.2548 ns and 0.3 ns in series [1] (water, 375 nm excitation). Moreover, the “diffusion distance of the excited state (2a*)” value in series [1] (aqueous systems) was not above 30 Å. Besides, in series [1] (water, 375 nm excitation), the “fluorescence lifetime τ2” value was 3.399 ns and 3.4 ns. Further, the conversion on lysozyme (14.3 kDa) (10 μM lysozyme, 200 μM pyridinium salt 2a, 300 μM glutathione, 20 mM NH4OAc pH 6.9, 427 nm, 60 minutes) was > 95% and 94%. For the same molecule, the “glutathionylation of all unlabeled and labeled protein content” value on lysozyme (14.3 kDa) (200 μM pyridinium salt 2a, 300 μM glutathione, 60 minutes irradiation) turned out to be 10%. At lysozyme (14.3 kDa), the “irradiation time to complete reactivity” value is given as “about 60 min”.
For `COc1ccc2cc(-c3cc(C)[n+](N(C)C(=O)OCCCCCCN=[N+]=[N-])c(C)c3)ccc2c1` [Pyridinium salt 2d, 1-((((6-azidohexyl)oxy)carbonyl)(methyl)amino)-4-(6-methoxynaphthalen-2-yl)-2,6-dimethylpyridin-1-ium tetrafluoroborate], the “glutathionylation of all unlabeled and labeled protein content” value at lysozyme (14.3 kDa) (200 μM pyridinium salt 2d, 300 μM glutathione, 20 minutes irradiation) was 3% and 2%.
